From BindingDB's records for doi:10.1016/0960-894X(95)00404-H (1995)

Experiment: Binding affinity to protein phosphatase, calcineurin (CN) was determined

| Compound | Kd [nM] |
| --- | --- |
| C=CC[C@@H]1/C=C(\C)C[C@H](C)C[C@H](OC)[C@H]2O[C@@](O)(C(=O)C(=O)N3CCCC[C@H]3C(=O)O[C@H](/C(C)=C/[C@@H]3CC[C@@H](O)[C@H](OC)C3)[C@H](C)[C@@H](O)CC1=O)[C@H](C)C[C@@H]2OC | 20 |
| C=CC[C@@H]1/C=C(\C)C[C@H](C)C[C@H](OC)[C@@H](O)[C@@H](OC)C[C@@H](C)CC(=O)C(=O)N2CCCC[C@H]2C(=O)O[C@H](/C(C)=C/[C@@H]2CC[C@@H](O)[C@H](OC)C2)[C@H](C)[C@@H](O)CC1=O [18-(E)-allyl-11,21-Dihydroxy-23-[2-((R)-4-hydroxy-3-methoxy-cyclohexyl)-1-methyl-vinyl]-10,12-dimethoxy-8,14,16,22-pentamethyl-1,3,4,7,8,9,10,11,12,13,14,15,18,20,21,22,23,25a-octadecahydro-2H-24-oxa-4a-aza-benzocyclotricosene-5,6,19,25-tetraone] | 350 |
| CCCC1C(=O)CC[C@@H](C)[C@@H](CCc2cccnc2)OC(=O)[C@@H]2CCCN(C2)C(=O)C(=O)CSCC[C@@H](OC)C[C@@H](C)CC(=O)N1C (stereo partly drawn) [(8S,10R,18R,19R,22R)-8-Methoxy-10,13,18-trimethyl-14-propyl-19-(2-pyridin-3-yl-ethyl)-20-oxa-5-thia-1,13-diaza-bicyclo[20.3.1]hexacosane-2,3,12,15,21-pentaone] | > 1000 |
| C=CC[C@@H]1/C=C(\C)C[C@H](C)C[C@H](OC)[C@@H](O)[C@@H](OC)C[C@@H](C)c2ncoc2C(=O)N2CCCC[C@H]2C(=O)O[C@H](/C(C)=C/[C@@H]2CC[C@@H](O)[C@H](OC)C2)[C@H](C)C(O)CC1=O (stereo partly drawn) [(E)-18-Allyl-11,21-dihydroxy-23-[(E)-2-((R)-4-hydroxy-3-methoxy-cyclohexyl)-1-methyl-vinyl]-10,12-dimethoxy-8,14,16,22-tetramethyl-4,24-dioxa-1,6-diaza-tricyclo[24.4.0.0*3,7*]triaconta-3(7),5,16-triene-2,19,25-] | 300 |

Next, values leading:

| Kd [nM] | Compound |
| --- | --- |
| > 1000 | CCCC1C(=O)CC[C@@H](C)[C@@H](CCc2cccnc2)OC(=O)[C@@H]2CCCN(C2)C(=O)C(O)CC[S+]([O-])CC[C@@H](OC)C[C@@H](C)CC(=O)N1C (stereo partly drawn) [(9S,11R,19R,20R,23R)-3-Hydroxy-9-methoxy-11,14,19-trimethyl-6-oxo-15-propyl-20-(2-pyridin-3-yl-ethyl)-21-oxa-6lambda*4*-thia-1,14-diaza-bicyclo[21.3.1]heptacosane-2,13,16,22-tetraone] |
| > 1000 | CCC(C)C1C(=O)CC[C@@H](C)[C@@H](CCc2cccnc2)OC(=O)[C@@H]2CCCN(C2)C(=O)C(=O)CCSCC[C@@H](OC)C[C@@H](C)CC(=O)N1C (stereo partly drawn) [(9S,11R,19R,20R,23R)-15-sec-Butyl-9-methoxy-11,14,19-trimethyl-20-(2-pyridin-3-yl-ethyl)-21-oxa-6-thia-1,14-diaza-bicyclo[21.3.1]heptacosane-2,3,13,16,22-pentaone] |
